In patent US6420435B1, “Method for treating gastrointestinal disorders” (priority 1999, dated 2002):

Tests used:
[1] = tested on: inventor with long history of severe heartburn; test: Inventor's own use of limonene for severe heartburn; format: in vivo, human; details: 500 mg to 1000 mg every other day for 8-20 days
Description: Similar results were obtained on another adult taking 1000 mg every other day as well as on participants of studies discussed in more detail in Examples 1-2.

[2] = tested on: individuals taking limonene; test: Side effects of limonene having at least 98% purity; format: in vivo, human; details: limonene having at least a 98% purity
Source text: Any conventional distillation method known by those of ordinary skill in the art for obtaining a highly purified form of d-limonene (about 98% pure) may be employed. Example 3 illustrates one preferred distillation method for removing the majority of contaminants.

[3] = In vitro studies on mechanism of action; details: suggested mechanism, coating the stomach wall
Source text: The present invention is directed to a method for treating gastrointestinal disorders and comprises the oral administration of a therapeutically effective amount of limonene, preferably a purified form of d-limonene (i.e. at least 98%), to a person in need of such treatment. “Limonene” as used herein shall include both d-limonene and 1-limonene. […] The inventor has discovered that oral administration of a therapeutically effective amount of purified, food grade limonene (preferably at least 98% pure d-limonene), taken once daily or once every other day for 2 to 20 days, will alleviate or eliminate entirely the symptoms, both in terms of frequency and severity, of gastrointestinal disorders, such disorders ranging from mild/moderate heartburn and gastric indigestion to severe heartburn or gastro esophageal reflux disorder (GERD).

[4] = tested on: adults suffering from chronic heartburn or gastroesophagael reflux disorder (GERD); test: Initial studies of d-limonene treatment regimen in 19 adults with chronic heartburn or GERD, symptom ratings on a scale of 1-10; format: in vivo, human; details: for % of participants (every day regimen) with symptom rating = 1-2: 1 capsule 1000 mg every day; for % of participants (every other day regimen) with symptom rating = 1-2: 1 capsule 1000 mg every other day; for % of all participants with symptom rating = 1-2: 1000 mg d-limonene capsule every day or every other day; for % of all participants with symptom rating = 1-2 / percentage of participants achieving complete relief of symptoms (rating of 1): all participants
Description: Initial studies of the inventive treatment regimen were conducted at different times on 19 adults suffering from chronic heartburn or gastroesophagael reflux disorder (GERD). […] Thirty-seven (37%) of the total participants in these initial studies were male ranging in age from 42 to 73 years (average age=50 years), while sixty-three (63%) of the participants were female ranging in age from 34 to 70 years (average age=43). All of the participants discontinued using their respective treatments of choice (i.e. over-the-counter (OTC) and/or prescription medications) at least one day prior to beginning the inventive treatment regimen. Prior to beginning the treatment regimen, each participant was asked to rate the frequency and severity of his/her gastrointestinal disorder symptoms on a scale of 1-10. For “severity of symptoms,” 1 corresponded to complete relief of symptoms while 10 corresponded to severe, painful symptoms. A rating of 2 would correspond to mild symptoms. For “frequency of symptoms,” 1 corresponded to complete relief of symptoms while 10 corresponded to daily symptoms.
Eleven of the participants were administered 1 capsule of d-limonene every other day for 20 days. Five of the participants were administered 1 capsule of d-limonene every day for 16 to 20 days. Each capsule contained 1000 mg of d-limonene having a purity of from 98.5% to 99.3%.
FIG. 3 is a graph illustrating the percentage of all the participants (i.e. those undergoing the every other day regimen and every day regimen) having a severity rating of 1.

[5] = tested on: participants suffering from mild/moderate heartburn to severe heartburn/GERD; test: Preliminary double-blind placebo study in 13 participants; format: in vivo, human; details: 1 capsule with 1 gram of 98% d-limonene, every day/every other day regimens
Description: A preliminary double-blind placebo study was conducted on 13 participants suffering from mild/moderate heartburn to severe heartburn/GERD. Seven participants were administered the product and six were administered a placebo. In the “limonene” group (i.e. 1 capsule containing 1 gram of 98% d-limonene), two participants were administered 1 capsule every day for five days followed by 1 capsule every other day for five days. The remaining “limonene” group participants were administered 1 capsule every other day for 20 days. In the “placebo” group, three participants were administered 1 placebo capsule (i.e. gelatin capsule containing soybean oil) daily for five days, followed by 1 capsule every other day for 5 days. Two participants were administered 1 placebo capsule every other day for 20 days while one participant having severe heartburn was administered 1 placebo capsule twice a day for 5 days, followed by 1 capsule every day for 5 days, followed by 1 capsule as needed. As shown in Table 4 (and FIG. 4), a significant difference in results was obtained between the two groups ([…]).

[6] = tested on: persons suffering from diagnosed peptic ulcers; test: Treatment regimen in persons with diagnosed peptic ulcers; format: in vivo, human; details: 1,000 mg dose regimen, had to discontinue
Source text: The present invention is particularly useful in alleviating the severity and frequency of gastrointestinal disorders. […] As used herein, “gastrointestinal disorder” shall mean mild/moderate heartburn, stomach acid indigestion, and severe heartburn/GERD.

## C=C(C)[C@H]1CC=C(C)CC1 [limonene]
[1]
  severity and frequency of heartburn symptoms: alleviated permanently
[2]
  side effects such as diarrhea and headache: significantly reduced certain side effects
[3]
  effect on gastric acid: neutralizing effect on gastric acid

## C=C(C)[C@H]1CC=C(C)CC1 [d-limonene]
[4]; Day 2
  % of participants (every day regimen) with symptom rating = 1-2: 14%
  % of participants (every other day regimen) with symptom rating = 1-2: 42%
[4]; Day 4
  % of participants (every day regimen) with symptom rating = 1-2: 29%
  % of participants (every other day regimen) with symptom rating = 1-2: 42%
  % of all participants with symptom rating = 1-2: 32%
[4]; Day 4, mild/moderate heartburn group
  percentage of participants with severity and frequency symptom ratings of 1-2: 55%
[4]; Day 4, severe heartburn/GERD group
  percentage of participants with severity and frequency symptom ratings of 1-2: 0%
[4]; Day 7
  % of participants (every day regimen) with symptom rating = 1-2: 57%
  % of participants (every other day regimen) with symptom rating = 1-2: 67%
  % of all participants with symptom rating = 1-2: 63%
[4]; Day 7, mild/moderate heartburn group
  percentage of participants with severity and frequency symptom ratings of 1-2: 82%
[4]; Day 7, severe heartburn/GERD group
  percentage of participants with severity and frequency symptom ratings of 1-2: 38%
[4]; Day 9
  % of participants (every day regimen) with symptom rating = 1-2: 71%
  % of participants (every other day regimen) with symptom rating = 1-2: 75%
  % of all participants with symptom rating = 1-2: 74%
[4]; Day 9, mild/moderate heartburn group
  percentage of participants with severity and frequency symptom ratings of 1-2: 82%
[4]; Day 9, severe heartburn/GERD group
  percentage of participants with severity and frequency symptom ratings of 1-2: 38%
[4]; Day 11, mild/moderate heartburn group
  percentage of participants with severity and frequency symptom ratings of 1-2: 91%
[4]; Day 11, severe heartburn/GERD group
  percentage of participants with severity and frequency symptom ratings of 1-2: 72%
[4]; Day 14
  % of participants (every day regimen) with symptom rating = 1-2: 86%
  % of all participants with symptom rating = 1-2: 89%
[4]; Day 15, mild/moderate heartburn group
  percentage of participants with severity and frequency symptom ratings of 1-2: 91%
[4]; Day 15, severe heartburn/GERD group
  percentage of participants with severity and frequency symptom ratings of 1-2: 88%
[4]; day 2
  percentage of participants achieving complete relief of symptoms (rating of 1): about 20%
[4]; day 14
  percentage of participants achieving complete relief of symptoms (rating of 1): 79%
[5]; Day 4
  Product vs. Placebo result (percentage of participants, rating criterion not given): 29%
[5]; Day 7
  Product vs. Placebo result (percentage of participants, rating criterion not given): 29%
[5]; Day 9
  Product vs. Placebo result (percentage of participants, rating criterion not given): 71%
[5]; Day 14
  Product vs. Placebo result (percentage of participants, rating criterion not given): 86%
[6]
  effect on severity of gastrointestinal symptoms in ulcer sufferers: increase in the severity of gastrointestinal symptoms
